Measurements as given in patent US20130030055A1, “COMPOSITIONS AND METHODS FOR TREATING HAIR LOSS, HAIR THINNING, AND HAIR COLOR LOSS” (priority 2010, published 2013).

What was measured:
Type in all cases: in vivo, human
eyelashes = test: Open-label study: health outcomes questionnaires and verbal responses
Source text: Subjects were instructed to apply bimatoprost 0.03% to the eyelid lash line once daily for 12 weeks using an applicator (Studio Basics Professional Tools Eye Applicators, Paris Presents Incorporated, Gumee, Ill.) for each upper eyelid each evening and, if necessary, to wipe the areas immediately around the eyelid afterward to remove excess medication. Periodic use of artificial tears was allowed, but only prior to administration of bimatoprost 0.03%. Health Outcomes Questionnaires. A questionnaire was used to track adverse events and to assess the subjects' satisfaction with treatment and their subjective evaluation of their eyelashes' appearance. Subjects were asked to answer all questions and return the questionnaire at weeks 4, 8, and 12. Subjects were also asked to respond verbally to 2 additional questions and their responses were recorded by site staff (FIGS. 1-4).

[1] = Open-label study: intraocular pressure measurements
Source text: Subjects were instructed to apply bimatoprost 0.03% to the eyelid lash line once daily for 12 weeks using an applicator (Studio Basics Professional Tools Eye Applicators, Paris Presents Incorporated, Gumee, Ill.) for each upper eyelid each evening and, if necessary, to wipe the areas immediately around the eyelid afterward to remove excess medication. Periodic use of artificial tears was allowed, but only prior to administration of bimatoprost 0.03%.
Clinical Examinations. Assessments were conducted at baseline and at weekly study visits at weeks 1, 4, 8, 12 (end of treatment period), and 16 (post-treatment follow-up period). At each visit, subjects underwent a complete eye examination by an ophthalmologist that included intraocular pressure measurements, visual acuity, and biomicroscopy. Subjects were queried at each visit for adverse events and these were recorded by the investigator. The presence of periorbital darkening was noted and graded on a scale of 0 to 4, and adverse event data were collected at each visit during the treatment period.
Statistical Analyses. A 2-sided paired t-test was used to evaluate the intraocular pressure change from baseline, and the GEA change from week 1 to week 12 was compared using a Wilcoxon signed-rank test. Analysis of intraocular pressure was performed on a per-eye and per-subject basis. A significance level of 0.05 was used for all statistical tests. Categorical variables were summarized with frequency, count, and percentages.

[2] = Randomized vehicle-controlled study: intraocular pressure; conditions: eye as sampling unit
Protocol: (§1) Safety measurements collected during this study included adverse events, ophthalmic examination variables (iris color, IOP, visual acuity, biomicroscopy, and ophthalmoscopy), physical examination, vital signs, and pregnancy testing.
Iris color was recorded for each subject at every study visit. Iris color was grouped as light (blue, blue-gray, blue/gray-brown, green, green-brown, hazel, and other) and dark (brown and dark brown). If the “other” category contained black in the description, it was grouped as dark. IOP (measured at approximately the same time of day at each visit), visual acuity, and biomicroscopy data were collected at screening, week 1, and months 1, 2, 3, 4, and 5. Ophthalmoscopy (dilated) was performed at screening and month 4.
IOP measurements were collected twice for each eye. If the 2 measurements differed by more than 2 mmHg, a third measurement was taken on that eye. If 2 measurements were collected, the average of the 2 was recorded as the IOP for a particular eye; if a third measurement was collected, the median measurement was recorded as the IOP for that eye. As all subjects were treated bilaterally, the average of the subject's right and left eye IOP values was analyzed for each time point. In the case where data were collected for only 1 eye, the collected data served as the IOP for the subject at that time point. […] Within-group changes from baseline were analyzed by the paired t-test. All analyses were based on observed cases and no data imputations were performed.
All adverse events were summarized and analyzed by the following subgroups: age (<45, 45 to 65, and >65 years), gender, and race (Caucasian and non-Caucasian). This was performed for both the treatment and posttreatment periods. Analyses of IOP were stratified by 3 subgroups, according to baseline IOP (8 to 12 mm Hg, >12 to 15 mm Hg, and >15 mm Hg). These ranges were determined by taking the bottom tercile, middle tercile, and the top tercile of baseline IOPs. The sampling unit was the “eye” (ie, each subject contributed 2 data points). Within each of the subgroups, the number and percent of subjects with an IOP of ≦6 mmHg was summarized by treatment group and visit utilizing a frequency table and was analyzed by the Pearson's chi-square test or Fisher's exact tables for 2-by-2 tables for each visit. The sampling unit was the eye and not the subject. In addition, a scatterplot of baseline IOP versus final IOP for each treatment group was presented for the treatment period and post-treatment period.

[3] = Randomized vehicle-controlled study: adverse events
Protocol: as §1
Safety data (adverse events, ophthalmic examination variables, physical examination, and vital signs variables) were summarized by descriptive statistics and/or frequency tables and were analyzed by appropriate nonparametric statistical methods (Pearson's chi-square test, Wilcoxon rank sum test) and/or parametric tests (ANOVA, t-test). The safety analyses were based on the safety population. No data imputation for missing visits or values was performed.

- Respondents answering yes to "Do your eyes sting or burn upon application?" (eyelashes; week 4 (8/19)): 42.2%
- Respondents answering yes to "Do your eyes sting or burn upon application?" (eyelashes; week 8 (6/18)): 33.3%
- Respondents answering yes to "Do your eyes sting or burn upon application?" (eyelashes; week 12 (4/15)): 26.7%
- Respondents indicating yes at least once to sting or burn upon application (eyelashes; weeks 4, 8, 12): 10 respondents
- Mean change from baseline in intraocular pressure across all weeks (per eye) ([1]; bimatoprost 0.03% once daily to eyelid lash line for 12 weeks, per eye): +0.98 to −0.81 mm Hg
- Mean change from baseline in intraocular pressure across all weeks (per subject) ([1]; bimatoprost 0.03% once daily to eyelid lash line for 12 weeks, per subject): +0.98 to −0.79 mm Hg
- Mean change from baseline intraocular pressure at each time point ([1]; each time point): less than 1 mm Hg
- Per-eye intraocular pressure change from baseline ([1]; week 1, P=0.0470): −0.81±2.72 mm Hg
- Per-eye intraocular pressure change from baseline ([1]; week 4, P=0.0412): 0.98±3.23
- Clinical significance of changes in intraocular pressure ([1]; within accepted variability of the test): not clinically significant
- Intraocular pressure, Max ([2]; Week 12): 3.5 mmHg
- Intraocular pressure, Median ([2]; Week 12): −1.25 mmHg
- Intraocular pressure, Min ([2]; Week 12): −7.0 mmHg
- Intraocular pressure, Mean ([2]; Week 12, N 252): −1.54 mmHg
- Intraocular pressure, Max ([2]; Week 16): 6.0 mmHg
- Intraocular pressure, Median ([2]; Week 16): −1.50 mmHg
- Intraocular pressure, Min ([2]; Week 16): −7.5 mmHg
- Intraocular pressure, Mean ([2]; Week 16, N 252): −1.25 mmHg
- Intraocular pressure, Max ([2]; Week 20 (post-treatment)): 5.0 mmHg
- Intraocular pressure, Median ([2]; Week 20 (post-treatment)): −0.50 mmHg
- Intraocular pressure, Min ([2]; Week 20 (post-treatment)): −7.5 mmHg
- Intraocular pressure, Mean ([2]; Week 20 (post-treatment), N 262): −0.67 mmHg
SMILES: CCNC(=O)CCC/C=C\C[C@@H]1[C@@H](/C=C/[C@@H](O)CCc2ccccc2)[C@H](O)C[C@@H]1O [bimatoprost]
- Subjects who noticed changes in eyelashes by week 12 (eyelashes; 16 respondents at week 12): 3 subjects
- Subjects who noticed changes in eyelashes within the first month (eyelashes; 16 respondents at week 12): 3 subjects
- Subjects who noticed changes in eyelashes within the first week (eyelashes; 16 respondents at week 12): One
- Respondents who had started to notice changes in their eyelashes by week 8 (eyelashes; 16 respondents at week 12 (9/16)): 56.3%
- Respondents indicating eyelashes were "improved" or "much improved" (eyelashes; by week 12, all respondents): 16 respondents
- Respondents agreeing "very much/much" that they had done something positive for their appearance (eyelashes; week 12 (12/16)): 75%
- Respondents agreeing "very much/much" that the treatment was helpful (eyelashes; week 12 (15/16)): 94%
- Subjects indicating both longer and thicker (eyelashes; week 12, 16 respondents): 1 subject
- Subjects reporting all 3 options, longer, thicker, and darker (eyelashes; week 12, 16 respondents): 3 subjects
- Respondents choosing "longer" as the eyelash change they noticed most (eyelashes; week 12, Twelve of the 16 respondents): 81.3%
- Respondents who had noticed growth or darkening of their eyelashes (verbal question) (eyelashes; week 12, all 23 respondents): 100%
- Subjects reporting conjunctival hyperemia as an adverse event ([3]; 5/137, 0.03% solution once daily for 4 months): 3.6%
- Overall safety and tolerability ([3]; healthy adult subjects): safe and well-tolerated
